Experimental data: ChEMBL document CHEMBL5046290, “Design, Synthesis, and Preclinical Profiling of GSK3739936 (BMS-986180), an Allosteric Inhibitor of HIV-1 Integrase with Broad-Spectrum Activity toward 124/125 Polymorphs” (J Med Chem, 2022)

What was measured:
[1] = Cmax in CD-1 mouse at 5 mg/kg, po by LC-MS/MS analysis; format: ADME, organism-based; parameters: route oral, dose 5 mg/kg; details: in vivo
[2] = tested on: Human immunodeficiency virus 1; assay: Antiviral activity against recombinant HIV1 NLRep-Rluc harbouring polymorphic TA infected in human MT-2 cells assessed as inhibition of virus growth in presence of fetal bovine serum by measuring luciferase activity after 5 days; format: functional, organism-based; details: Human immunodeficiency virus 1, NLRep, MT2, 120 h
[3] = Permeability of the compound at pH 7.4 by PAMPA assay; format: ADME; details: read-out: permeability

Cc1nc(C)c([C@H](OC(C)(C)C)C(=O)O)c(N2CCC(C)(C)CC2)c1-c1ccc(OCCc2ccc(F)cc2)cc1
Cmax [1]: 2360 nM
EC50 [2]: 2.8 nM
Papp [3]: 50.5 ×10⁻⁶ cm/s
